Measurements: publication PMC7292393 (PLoS ONE, 2020)
Several values for one entry are separate records, joined by “and”; a condition that tells them apart may be missing. Identical values can stand only once.

Experiments:
[1] = target: T1, human SUMO1 (Homo sapiens, UniProt P63165); test: Surface plasmon resonance (SPR) primary screen; type: binding; details: for interaction in SPR primary screen: 500 μM, %RUmax above threshold of ~15%; for SPR Screens 1° / %RUmax: 500 μM flavonoid in DMSO; for SPR Screens 1°: cut-off of %RUmax of ~15; for %RUmax: SPR primary screen, (Mean RU/RUmax)*100;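 on all read-outs here: recombinant human SUMO1 amine-coupled to a sensor chip, blank activated and quenched reference flow cell, flavonoids injected 2 min then 1 min dissociation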
T1 construct: encoding amino acids 1–97 of mature human SUMO1; host or cells: E. coli BL21 Rosetta (DE3)

[2] = target: T1, human SUMO1; test: SPR secondary screen / dose-dependent binding; set-up: key to SPR Screens 2°: ✓: dose-dependent saturation kinetics; ×: no indication of saturation kinetics; details: for SPR Screens 2°: five concentrations 31.25-500 μM; for Kd: one-site hyperbola fit, 31.25-500 μM flavonoid, Fig 2A-C, read-out: Kd (SPR secondary screen); for saturation binding in SPR secondary screen: Fig 2A-H
[3] = target: T1, human SUMO1; test: Differential scanning fluorimetry (DSF) thermal shift; type: binding; set-up: key to DSF Tm SUMO1 + Flavonoid (class): UF: unfolded protein; ND: melting curve could not be determined; details: 2 μM SUMO1, 300 μM flavonoid; for DSF Tm SUMO1 + Flavonoid: mean and SEM, n = 5, SUMO1 + DMSO 59.63 ± 0.03
[4] = target: T1, human SUMO1; test: Native-PAGE mobility shift; type: binding; details: SUMO1 ~40 μM, 300 μM flavonoid
Description: Recombinantly purified proteins (Saccharomyces cerevisiae SMT3, Saccharomyces cerevisiae Ulp1, and human SUMO1) were incubated with flavonoids (or DMSO vehicle control) for 30 min to 1 hr at 4°C. Samples were loaded onto 4–20% or 7.5% Mini-PROTEAN TGX Precast Protein Gels (Bio-Rad, Hercules, CA) and were run […] at 95 V for 4 hr 30 min at 4°C using a standard SDS-free loading buffer (pH 8.0) and Tris-glycine running buffer (pH 8.3). Immediately after electrophoresis, the gel was imaged to track migration of bright yellow flavonoid. Following this step, the gel was stained with Bio-Safe Coomassie (Bio-Rad, Hercules, CA) to detect the proteins.

[5] = Precipitation in NMR samples; type: physicochemical; details: at 400 μM, dissolved in DMSO-d6, NMR sample
Description: All NMR experiments for 2D ^1H-^15N HSQC spectra were performed at 17°C on a Varian VNMR 500 MHz spectrometer equipped with a 5mm cryogenic triple resonance probe. Complex points 1024 × 128 and spectral widths of 14 × 38 ppm were used to record all the spectra. […] DMSO-d6 used as a cosolvent caused a slight shift (< ~0.8ppm) of resonance peaks. Therefore resonance assignments for ^15N-labeled SUMO1 residues were compared to the DMSO control treatment and normalized by a common factor. […] The resonance peak assignments were performed using data deposited in the Biological Resonance Data Bank (BMRB) under 25576 as reference. Chemical shift changes were characterized by calculating a weighted chemical shift difference as previously described. […] The chemical shift perturbation data from this work are deposited under BMRB ID 50128.

T1 sequence (P63165 1-97): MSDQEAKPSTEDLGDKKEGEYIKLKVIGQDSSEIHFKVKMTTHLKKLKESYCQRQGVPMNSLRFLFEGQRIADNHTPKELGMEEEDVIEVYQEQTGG

Compound | interaction in SPR primary screen [1] | SPR Screens 2° [2] | Kd [2] | SPR Screens 1° [1] | %RUmax [1] [%] | DSF Tm SUMO1 + Flavonoid [3] [°C] | effect on DSF thermogram / thermal stability of SUMO1 [3] | saturation binding in SPR secondary screen [2] | electrophoretic mobility shift of human SUMO1 [4] | precipitation in NMR sample [5] | DSF Tm SUMO1 + Flavonoid (class) [3]
O=C(/C=C/c1ccc(O)cc1)c1ccc(O)cc1O [Isoliquiritigenin] | interacted with SUMO1 in the primary screen | ✓ | ~196 µM |  |  |  |  |  |  |  | 
C[C@@H]1O[C@@H](O[C@H]2[C@H](Oc3cc(O)c4c(c3)O[C@H](c3ccc(O)cc3)CC4=O)O[C@H](CO)[C@@H](O)[C@@H]2O)[C@H](O)[C@H](O)[C@H]1O [Naringin] |  |  |  | × (low or no binding activity) | 5.4 | 58.93 ± 0.02 |  |  |  |  | 
C[C@@H]1O[C@@H](O[C@H]2[C@H](Oc3cc(O)c(C(=O)CCc4ccc(O)cc4)c(O)c3)O[C@H](CO)[C@@H](O)[C@@H]2O)[C@H](O)[C@H](O)[C@H]1O [Naringin dihydrochalcone] |  |  |  | × (low or no binding activity) | 8.5 | 59.94 ± 0.07 |  |  |  |  | 
C[C@@H]1O[C@@H](Oc2c(-c3ccc(O)c(O)c3)oc3cc(O)cc(O)c3c2=O)[C@H](O)[C@H](O)[C@H]1O [Quercitrin] |  |  |  | × (low or no binding activity) | 14.2 | 54.28 ± 0.19 | significant thermal destabilization or unfolding |  |  |  | 
COc1cc(O)c(Cc2ccccc2O)c(O)c1C(=O)/C=C/c1ccccc1 [C-benzylated chalcone] |  |  |  | × (low or no binding activity) | -5.3 |  |  |  |  |  | 
O=C1C[C@@H](c2ccc(O)cc2)Oc2cc(O)cc(O)c21 [Naringenin] | interacted with SUMO1 in the primary screen | × |  | ✓ (%RUmax with binding activity above cut-off) | 27.5 | 59.24 ± 0.13 |  | failed to exhibit saturation binding |  |  | 
O=C(/C=C/c1ccc(O)c(O)c1)c1ccc(O)cc1O [Butein] | interacted with SUMO1 in the primary screen | × |  | ✓ (%RUmax with binding activity above cut-off) | 74.2 |  |  | failed to exhibit saturation binding |  |  | 
O=c1c(O[C@@H]2O[C@H](CO)[C@@H](O)[C@H](O)[C@H]2O)c(-c2ccc(O)c(O)c2)oc2cc(O)cc(O)c12 [Quercetin 3-β-D-glucoside] | interacted with SUMO1 in the primary screen | × |  | ✓ (%RUmax with binding activity above cut-off) | 21.3 | 56.95 ± 0.28 |  | failed to exhibit saturation binding |  |  | 
O=c1cc(-c2ccc(O)c(O)c2)oc2cc(O)cc(O)c12 [Luteolin] |  |  |  | × (low or no binding activity) | -47.8 | 51.89 ± 0.68 | significant thermal destabilization or unfolding |  | unable to detect a similar gel shift |  | 
O=c1c(O)c(-c2ccc(O)c(O)c2)oc2cc(O)cc(O)c12 [Quercetin, 3,3',4',5,7-pentahydroxyflavone] | interacted with SUMO1 in the primary screen | ✓ | 41.7 µM and ~42 µM | ✓ (%RUmax with binding activity above cut-off) | 14.5 |  | cause unfolding of human SUMO1 | exhibited binding that approached saturation |  | Precipitation | UF
Cc1c(O)cc2oc(-c3ccc(O)c(O)c3)c(O)c(=O)c2c1O [Pinoquercetin] | interacted with SUMO1 in the primary screen | × |  | ✓ (%RUmax with binding activity above cut-off) | 143.4 |  |  | failed to exhibit saturation binding |  |  | 
O=c1c(-c2ccc(O)c(O)c2)coc2cc(O)ccc12 [3’,4’,7-Trihydroxy-isoflavone, 3’,4’,7-Trihydroxyisoflavone] | interacted with SUMO1 in the primary screen | × |  | ✓ (%RUmax with binding activity above cut-off) | 48.0 | 33.28 ± 0.15 | significant thermal destabilization or unfolding | failed to exhibit saturation binding |  |  | 
O=c1c(O)c(-c2ccc(O)cc2)oc2cc(O)cc(O)c12 [Kaempferol, 3,4′,5,7-tetrahydroxyflavone] |  |  |  | × (low or no binding activity) | 12.6 | 60.28 ± 0.09 | little or no effect |  |  | Precipitation | 
